Assay results reported in patent US20110313156A1 (BOEHRINGER INGELHEIM INTERNATIONAL GMBH, priority 2008, published 2011).

Biological target: T1, ΔPH-PDK1 (aa 51-359; Q66A mutation) (Homo sapiens, UniProt O15530, Q66A)
T1 construct: a shortened PDK1 enzyme (aa 51-359; Q66A mutation) is used; His6 (N, cleaved yes)
T1 sequence (O15530 51-359 Q66A): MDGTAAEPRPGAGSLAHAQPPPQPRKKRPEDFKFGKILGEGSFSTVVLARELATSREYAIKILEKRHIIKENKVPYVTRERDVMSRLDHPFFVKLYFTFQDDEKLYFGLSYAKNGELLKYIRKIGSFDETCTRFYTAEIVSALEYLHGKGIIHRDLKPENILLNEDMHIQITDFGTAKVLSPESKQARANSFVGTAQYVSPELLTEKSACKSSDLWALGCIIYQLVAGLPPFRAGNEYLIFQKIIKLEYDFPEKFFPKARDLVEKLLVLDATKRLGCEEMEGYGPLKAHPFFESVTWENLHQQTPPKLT
Experiment: PDK1 kinase assay II (shortened enzyme)
Type: biochemical
Conditions: compound at 10 μM, one asterisk: incubation for 24 h, read-out: % CTL (residual activity of the enzyme relative to DMSO control)
Experimental: Another assay was developed in which a shortened PDK1 enzyme (aa 51-359; Q66A mutation) is used that carries in the N-terminal position a His6 tag that is cleaved during purification. (ΔPH-PDK1).
The following components are combined in a well of a 96-well round-based dish (Messrs. Greiner bio-one, No. 650101): • 15 μL of compound to be tested in varying concentrations (e.g. Starting at 10 μM, and diluted in steps of 1:5) in 3.33% DMSO (final concentration 1% DMSO)/assay buffer (50 mM Tris pH 7.5, 0.05% β-mercaptoethanol, 10 mM Mg-acetate) • 15 μL (ΔPH-PDK1; 12 ng/well) and PDKtide ([…]-QEMFRDFDYIADWC) synthesised by Pepceuticals Limited, Nottingham, United Kingdom; 25 μM final concentration); (ΔPH-PDK1 and PDKtide are together diluted accordingly in assay buffer; PDKtide is present in this mixture as an 83.3 μM solution. These 30 […] are incubated for 24 h at RT before ATP solution is added. • 20 μL ATP solution (25 μM ATP with 1.0 μCi/well gamma-P33-ATP)
The reaction is started by adding the ATP solution and the mixture is incubated for 120 min at ambient temperature; at the start of the reaction the dishes are shaken gently. The reaction is stopped by the addition of 50 μL/well of 500 mM phosphoric acid (H3PO4) and incubated for about 20 min at ambient temperature. The precipitate is transferred by harvesting onto filter plates (96-well microtitre filter plate: UniFilter GF/C; Messrs Perkin Elmer; No. 6005174), then washed 6 times with 50 mM H3PO4 and dried at 60° C. Then the plate is stuck down with sealing tape, 25 μL/well of scintillation solution (Microscint 0; Messrs. Perkin Elmer; No. 6013611) are added and the amount of P33 precipitated is measured using the Wallac Betacounter. The measured data are evaluated using Graphpad Prism software.
The % CTL values indicate the residual activity of the enzyme after the addition of the inhibitory compound in the solvent DMSO in relation to the enzyme activity in the solvent DMSO without the addition of a compound (control). The majority of the values were determined using the PDK1 kinase assay III described hereinbefore. The values marked with an asterisk (* or**) were determined using the PDK1 kinase assay II described hereinbefore (one asterisk→incubation for 24 h; two asterisks→incubation for 5 min)

remaining activity at 10 µM	Compound
25.4%	CN1CCC(N(C)c2ccc(Nc3ncc4cc(/C=C/CNC(=O)c5cc(Cl)nn(Cc6ccc(F)c(F)c6)c5=O)ccc4n3)cc2)CC1 [IV-40, 6-chloro-2-(3,4-difluorobenzyl)-N-{3-[2-({4-[methyl(1-methylpiperidin-4-yl)amino]phenyl}amino)quinazolin-6-yl]prop-2-en-1-yl}-3-oxo-2,3-dihydropyridazine-4-carboxamide]
16.6%	CC(=O)Nc1ccc(Nc2ncc3cc(/C=C/CNC(=O)c4cncn(Cc5ccc(F)c(F)c5)c4=O)ccc3n2)cc1 [IV-47, N-[(2E)-3-(2-{[4-(acetylamino)phenyl]amino}quinazolin-6-yl)prop-2-en-1-yl]-1-(3,4-difluorobenzyl)-6-oxo-1,6-dihydropyrimidine-5-carboxamide]
